# Measurements taken from patent US10083341B2, “Cellular activity quantification using labeled probes” (Oregon Health & Science University, priority 2014, dated 2018).
# Entries after “also recorded” stand apart in the source; their conditions may differ. Like-named read-outs stand apart in the source and are kept apart here.
# Legend:
# [1] = test system: MOLM-14 cells; assay: Inhibitory concentrations (IC50, IC12.5) of kinase inhibitor panel for MOLM-14 cells; assay type: cell-based, human; settings: concentration used for 48 h treatment
# [2] = test system: pCRKL; assay: SC-QDP discrete QD counting of pCRKL in K562 cells; assay type: cell-based, human; settings: pCRKL level divided by isotype control, untreated 11.4
# Protocol: (§1) Cell culture and kinase inhibitor treatment. Primary mononuclear cells (MNCs) were isolated from peripheral blood or bone marrow of newly diagnosed, untreated patients with chronic phase CML. MNCs were isolated by centrifugation through a Ficoll gradient, and red blood cells were lysed with 1×ACK (0.15 M NH4Cl, 10 mM KHCO3, 0.1 mM EDTA). MNCs were grown in serum-free media consisting of IMDM supplemented with 20% BIT (Stem Cell Technologies), 40 μg/ml low-density lipoprotein (Sigma-Aldrich), 10^-6 M β-mercaptoethanol, and the following cytokines: 100 ng/ml SCF (Stem Cell Technologies), 100 ng/ml G-CSF, 20 ng/ml FLT3 ligand, 20 ng/ml IL-3, and 20 ng/ml IL-6 (Sigma-Aldrich). MNCs were grown at a density of 5×10^5 cells/ml at 37° C., 5% CO2, overnight in a humidified incubator before drug treatment. […]
# (§2) SC-QDP image acquisition. Cells were imaged with an inverted fluorescent microscope (Zeiss AxioObserver) equipped with high magnification objectives, QD filter sets (Semrock), and a Luca-R camera (Andor) suitable for detecting discrete QD fluorescence. […]
# (§3) SC-QDP discrete QD counts in single cells. Levels of phosphoprotein activity were quantified in single cells using automated software imaging algorithms. […]
# [3] = test system: pCRKL; assay: QD total (diffuse) fluorescence quantification of pCRKL in K562 cells; assay type: cell-based, human; settings: dasatinib-treated, untreated 1.1
# Protocol: as §1, §2
# Measurements of single-cell total fluorescence of QD and Alexa dyes were obtained for each cell by summing pixel values from all slices in a single z-stack corresponding to each cell and subtracting the global background value for each field of view from the image. […]
# [4] = test system: pCRKL; assay: SC-QDP pCRKL in single CD34+ cells from CML patients; assay type: cell-based, human; settings: dasatinib 100 nM, 4 h
# Protocol: (§4) Cell culture and kinase inhibitor treatment. Primary mononuclear cells (MNCs) were isolated from peripheral blood or bone marrow of newly diagnosed, untreated patients with chronic phase CML. MNCs were isolated by centrifugation through a Ficoll gradient, and red blood cells were lysed with 1×ACK (0.15 M NH4Cl, 10 mM KHCO3, 0.1 mM EDTA). MNCs were grown in serum-free media consisting of IMDM supplemented with 20% BIT (Stem Cell Technologies), 40 μg/ml low-density lipoprotein (Sigma-Aldrich), 10^-6 M β-mercaptoethanol, and the following cytokines: 100 ng/ml SCF (Stem Cell Technologies), 100 ng/ml G-CSF, 20 ng/ml FLT3 ligand, 20 ng/ml IL-3, and 20 ng/ml IL-6 (Sigma-Aldrich). MNCs were grown at a density of 5×10^5 cells/ml at 37° C., 5% CO2, overnight in a humidified incubator before drug treatment. The CML (K562) and AML (MOLM-14) cell lines were grown in suspension culture, in RPMI with 10% fetal bovine serum (Invitrogen), 1% L-glutamine (100 mM), and 1% penicillin/streptomycin (100 μg/ml), in a humidified incubator at 37° C., 5% CO2.
# K562 cells and MNCs were treated for 4 h with dasatinib, at a concentration of 100 nM unless otherwise specified. […].
# (§5) SC-QDP phosphoprotein labeling. Cells were fixed, permeabilized and dispersed onto cover glass chambers (Lab-Tek; Nunc), or custom-made, multi-well cover glass chambers for high throughput assays. The cells in each well were blocked and treated with primary anti-phosphoprotein antibodies (pCRKL, pSTAT5, pSTAT3, pERK1/2, pAKT473; Cell Signaling Technology). The anti-CD34 antibody (Dako, USA) was used for selection of CD34+ primitive cells. […]
# as §2, §3
# [5] = test system: pSTAT5; assay: SC-QDP pSTAT5 in single CD34+ cells from CML patients; assay type: cell-based, human; settings: five CML patients, dasatinib 100 nM, 4 h
# Protocol: as §1, §2, §3
# [6] = test system: pAKT; settings: MOLM-14 cells, 48 h
# Protocol: as §4
# (§6) K562 cells and MNCs were treated for 4 h with dasatinib, at a concentration of 100 nM unless otherwise specified.
# (§7) SC-QDP phosphoprotein labeling. Cells were fixed, permeabilized and dispersed onto cover glass chambers (Lab-Tek; Nunc), or custom-made, multi-well cover glass chambers for high throughput assays. The cells in each well were blocked and treated with primary anti-phosphoprotein antibodies (pCRKL, pSTAT5, pSTAT3, pERK1/2, pAKT473; Cell Signaling Technology). The anti-CD34 antibody (Dako, USA) was used for selection of CD34+ primitive cells. […] After cells were incubated with secondary antibodies, they were washed in buffer solution and imaged.
# (§8) SC-QDP image acquisition. Cells were imaged with an inverted fluorescent microscope (Zeiss AxioObserver) equipped with high magnification objectives, QD filter sets (Semrock), and a Luca-R camera (Andor) suitable for detecting discrete QD fluorescence. Data acquisition consisted of acquiring multiple fields of view randomly for each well of the multi-well chamber. The microscope was controlled by Micromanager (www.micro-manager.org/). […] Image acquisition was performed manually or by automated high-throughput scanning. For automated high-throughput scanning, a custom-written Java plugin for Micromanager was used that allows scanning of user-selected wells as well as random or user-selected areas within each well for DIC, and appropriate multiple quantum dot (QD) channels. The Java plugin also corrected slide tilt by determining the slide focal plane. Image focus at each well was verified and corrected manually if needed.
# (§9) SC-QDP discrete QD counts in single cells. Levels of phosphoprotein activity were quantified in single cells using automated software imaging algorithms. Cell segmentation was first done manually and then was optimized for speed using an automated procedure. Automated cell segmentation comprised detecting the nucleus and plasma membrane using a threshold-based intensity algorithm and a membrane expansion cell segmentation algorithm (www.cellprofiler.org) of each cell. Discrete QD fluorescence was detected, localized and tabulated on a per cell basis using automated algorithms written in MATLAB (Matlab). Briefly, detection of discrete QD probes was accomplished in single-cell z-stacks by applying a spatial bandpass filter, detecting localized maxima, and calculating the position of each QD for each z-slice. […] The output of these automated algorithms comprised total counts of detected and localized discrete QD fluorescent puncta in each single cell z-stack.
# [7] = test system: pERK; settings: MOLM-14 cells, 48 h
# Protocol: as §4, §6, §7, §8, §9
# [8] = test system: pCRKL, pSTAT5, and pSTAT3; assay: SC-QDP baseline phosphoheterogeneity of K562 cells after cell cycle synchronization; assay type: cell-based, human; settings: lovastatin-induced cell cycle synchronization, data not shown
# Description: as §5, §2
# SC-QDP discrete QD counts in single cells. Levels of phosphoprotein activity were quantified in single cells using automated software imaging algorithms. […] Discrete QD fluorescence was detected, localized and tabulated on a per cell basis using automated algorithms written in MATLAB (Matlab). […] The output of these automated algorithms comprised total counts of detected and localized discrete QD fluorescent puncta in each single cell z-stack. […] The QDs were identified as discrete, non-aggregated units comprised of single or a few QDs, as confirmed by intensity profile measurements of QD fluorescence. […]
IC50 ([1]; Homo sapiens),Compound,IC12.5 ([1]; Homo sapiens),IC12.5 [1],also measured
2 µM,Cc1ccc(Nc2nccc(N(C)c3ccc4c(C)n(C)nc4c3)n2)cc1S(N)(=O)=O [pazopanib],0.5 µM,,
0.4 µM,Cc1nc(Nc2ncc(C(=O)Nc3c(C)cccc3Cl)s2)cc(N2CCN(CCO)CC2)n1 [dasatinib],,0.1 µM,"pCRKL activity S/N ratio by QD counting ([2]; dasatinib 10 nM): 4.7; pCRKL activity S/N ratio by QD counting ([2]; dasatinib 100 nM): 2.3; pCRKL S/N ratio by QD total fluorescence [3]: 1.7; pCRKL inhibition (shift in peak of PDE curve) ([4]; CD34+ cells of five CML patients): ~1.8 fold; frequency of dasatinib-resistant CD34+ cells, alternative threshold (pCRKL greater than mean untreated − 0.5σ untreated) ([4]; five CML patients): 8.5-53.9%; frequency of dasatinib-resistant CD34+ cells (pCRKL equal to or greater than mean of untreated CD34+ cells) ([4]; five CML patients, of total dasatinib-treated cell population): 5.4-9.9%; resistant CD34+ cell population (pSTAT5 greater than mean pSTAT5 of untreated CD34+ cells) [5]: 17-37%"
0.012 µM,CCN(CC)CCNC(=O)c1c(C)[nH]c(/C=C2\C(=O)Nc3ccc(F)cc32)c1C [sunitinib],,0.003 µM,
10 µM,N#CC[C@H](C1CCCC1)n1cc(-c2ncnc3[nH]ccc23)cn1 [ruxolitinib],2.5 µM,,
0.02 µM,CO[C@H]1C[C@@H]2CC[C@@H](C)[C@@](O)(O2)C(=O)C(=O)N2CCCC[C@H]2C(=O)O[C@H]([C@H](C)C[C@@H]2CC[C@@H](O)[C@H](OC)C2)CC(=O)[C@H](C)/C=C(\C)[C@@H](O)[C@@H](OC)C(=O)[C@H](C)C[C@H](C)/C=C/C=C/C=C/1C [rapamycin],,0.005 µM,
9 µM,CS(=O)(=O)CCNCc1ccc(-c2ccc3ncnc(Nc4ccc(OCc5cccc(F)c5)c(Cl)c4)c3c2)o1 [lapatinib],2.25 µM,,
9 µM,Cc1cn(-c2cc(NC(=O)c3ccc(C)c(Nc4nccc(-c5cccnc5)n4)c3)cc(C(F)(F)F)c2)cn1 [nilotinib],2.25 µM,,
1.8 µM,C[C@@H](Oc1cc(-c2cnn(C3CCNCC3)c2)cnc1N)c1c(Cl)ccc(F)c1Cl [crizotinib],0.45 µM,,
0.008 µM,CNC(=O)c1cc(Oc2ccc(NC(=O)Nc3ccc(Cl)c(C(F)(F)F)c3)cc2)ccn1 [sorafenib],,0.002 µM,
3.6 µM,COc1cc2c(Nc3ccc(Br)cc3F)ncnc2cc1OCC1CCN(C)CC1 [vandetanib],0.9 µM,,

# The next lines start with the compound.
Compound,IC50 ([1]; Homo sapiens),IC12.5 ([1]; Homo sapiens),IC12.5 [1],also measured
C=CC(=O)N1CCC[C@@H](n2nc(-c3ccc(Oc4ccccc4)cc3)c3c(N)ncnc32)C1 [ibrutinib],1.6 µM,0.4 µM,,
COc1cc2ncnc(Nc3ccc(F)c(Cl)c3)c2cc1OCCCN1CCOCC1 [gefitinib],,2.25 µM,,
Cc1ccc(C(=O)Nc2ccc(CN3CCN(C)CC3)c(C(F)(F)F)c2)cc1C#Cc1cnc2cccnn12 [ponatinib],0.004 µM,,0.001 µM,
C#Cc1cccc(Nc2ncnc3cc(OCCOC)c(OCCOC)cc23)c1 [erlotinib],7 µM,1.75 µM,,overall shift of pAKT PDE curve [6]: left-shift; pAKT phosphoresponse ([6]; at IC12.5): phosphoinhibition; also recorded: inhibition of pAKT; pAKT phosphoresponse ([6]; at IC50): phosphoactivation; also recorded: pAKT activation; overall shift of pERK PDE curve [7]: left-shift; percentage of resistant cells (pERK equal to or greater than mean pERK of untreated cells) ([7]; IC50 concentration (FIG. 5C legend)): 36%; pERK phosphoresponse ([7]; at IC12.5): phosphoinhibition; pERK phosphoresponse ([7]; at IC50): phosphoactivation
CC[C@H](C)C(=O)O[C@H]1C[C@@H](C)C=C2C=C[C@H](C)[C@H](CC[C@@H]3C[C@@H](O)CC(=O)O3)[C@H]21 [lovastatin],,,,baseline phosphoheterogeneity [8]: reduced this heterogeneity
Cc1ccc(NC(=O)c2ccc(CN3CCN(C)CC3)cc2)cc1Nc1nccc(-c2cccnc2)n1 [imatinib],,2.5 µM,,
CNC(=O)c1ccccc1Sc1ccc2c(/C=C/c3ccccn3)n[nH]c2c1 [axitinib],,,0.025 µM,
